Test results reported in patent publication US7642277B2, “Non-nucleoside reverse transcriptase inhibitors” (Boehringer Ingelheim International GmbH, priority 2002, dated 2010).

How the values were obtained:
[1] = molecular target: T1, HIV-1 RT enzyme (wild type) (Human immunodeficiency virus type 1 group M subtype B, UniProt P04585); experiment: Reverse transcriptase (RT) enzymatic assay (IC50), PicoGreen fluorescence, wild type; assay type: biochemical; settings: RT enzymatic assay, wild type; read-out: IC50 WT
T1 construct: The reverse transcriptase (RT) enzyme assay has been adapted to a 96-well microtiter plate format
In short: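 Enzyme at ≈10 nM in 50 mM Tris/HCl pH 7.8 with 60 mM NaCl, 2 mM MgCl2, 6 mM DTT, 2 mM GSH, 0.02% Chaps; 15 min preincubation with compound at room temperature, then substrate added and run 50 min at 37 °C. EDTA quench; product DNA read by PicoGreen fluorescence.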

[2] = molecular target: T2, HIV-1 RT resistant mutant K103N/Y181C (Human immunodeficiency virus type 1 group M subtype B, UniProt P04585, K690N/Y768C); experiment: Reverse transcriptase (RT) enzymatic assay (IC50), PicoGreen fluorescence, resistant mutant; assay type: biochemical
T2 construct: The reverse transcriptase (RT) enzyme assay has been adapted to a 96-well microtiter plate format
Method: Reverse Transcriptase (RT) Assays Enzymatic Assay (IC50)
The enzymatic assay employed is described as follows: The reverse transcriptase (RT) enzyme assay has been adapted to a 96-well microtiter plate format and uses PicoGreen™ as a fluorescent intercalator. More explicitly, the HIV-1 RT enzyme was thawed and appropriately diluted into Tris/HCl 50 mM pH 7.8 containing NaCl 60 mM, MgCl2∘6H2O 2 mM, DTT 6 mM, GSH 2 mM and 0.02% w/v Chaps to give ≈10 nM enzyme. To 10 μL of this enzyme solution was added 10 μL of inhibitor solution (40 μM to […] inhibitor in the same assay buffer as above containing 4% v/v DMSO). The plate was pre-incubated for 15 minutes at room temperature before proceeding to the next step. In this pre-incubation step, the highest and lowest inhibitor concentrations were 20 μM and 1.016 nM respectively and the concentration of DMSO was 2% v/v. Then the enzymatic reaction was initiated by addition of 20 μL of substrate solution. The final reaction mixture contained Tris/HCl 50 mM pH 7.8, NaCl 60 mM, MgCl2∘6H2O 2 mM, DTT 6 mM, GSH 2 mM, CHAPS 0.02% w/v, DMSO 1% v/v, poly rC 45 nM, dG15 4.5 nM, dGTP 3.6 μM, and ≈2.5 nM enzyme. In this incubation step, the highest and lowest inhibitor concentrations were 10 μM and 0.508 nM respectively. After addition of the substrate cocktail, the plate was covered with a plastic seal and incubated for 50 minutes at 37° C. in a dry incubator. The reaction was then quenched by addition of 5 μL of EDTA 0.5 M. The plate was shaken for 30 seconds at medium speed and incubated for 5 minutes at room temperature. Then 160 μL of PicoGreen™ 1:400 dilution from commercial stock (diluted in Tris 20 mM pH 7.5 with EDTA 1 mM) was added and the plate was shaken for 30 seconds and incubated for 10 minutes at room temperature. The plate was then analyzed using a POLARstar Galaxy fluorimeter (BMG Labtechnologies) with λex and λem of 485 nm and 520 nm respectively. […] Each row contained at its extremities a blank and a control well.
(§1) Table legend: A=>100; B=100-50; C=<50; NT=not tested

[3] = tested on: HIV-1 (wild type) in C8166 LTRluc cells; experiment: C8166 HIV-1 luciferase assay (EC50), wild type; assay type: cell-based; settings: Human immunodeficiency virus 1, C8166 HIV-1 luciferase assay (no *)
Text: (§2) C8166 HIV-1 Luciferase Assay (EC50)
(§3) Plasmid: pGL3 Basic LTR/TAR #12
Plasmid is the pGL3 Basic Vector (a promoterless luciferase expression vector from Promega catalogue #E1751) with the addition of HIV-1 H×B2 LTR sequence from nucleotide −138 to +80 (Sca1-HindIII) upstream of the luciferase gene and the gene for blasticidine resistance cloned in.
(§4) C8166 cells are a human T-lymphotrophic virus type 1 immortalized but nonexpressing line of cord blood lymphocytes and are highly permissive to HIV-1 infection. The reporter cells were made by electroporating C8166 cells with pGL3 Basic LTR/TAR and then selecting positive clones with blasticidine. The clone C8166-LTRluc #A8-F5-G7 was selected by 3 consecutive rounds of limiting dilution under blasticidine selection.
(§5) Media: Complete media consisting of: RPMI 1640+10% FBS+10^−5 M
(§6) β-mercaptoethanol+10 μg/ml gentamycin. Cultures are maintained in complete media with 5 μg/ml blasticidine, however, selection is removed for the assay.
(§7) Luciferase Assay Protocol
(§8) Serial dilutions of HIV-1 inhibitors compounds are prepared in complete media from 10 mM DMSO stock solutions. Eleven serial dilutions of 2.5× are made at 8× desired final concentration in a 1 ml deep well titer plate (96 wells). The 12th well contains complete media with no inhibitor and serves as the positive control. All samples contain the same concentration of DMSO (≦0.1% DMSO). A 25 μl aliquot of inhibitor is added, to triplicate wells, of a 96 well tissue culture treated clear view black microtiter plate (Corning Costar catalogue # 3904). The last row is reserved for uninfected C8166 LTRluc cells to serve as the background blank control and the first row is media alone.
(§9) Count C8166 LTRluc cells and place in a minimal volume of complete RPMI 1640 in a tissue culture flask (ex. 30×10^6 cells in 10 ml media/25 cm^2 flask). Infect cells with HIV-1 at a moi of 0.005. Incubate cells for 1.5 hours at 37° C. on a rotating rack in a 5% CO2 incubator. Resuspend cells in complete RPMI to give a final concentration of 25,000-cells/175 μl. Add 175 μl of cell mix to wells of 96 well microtiter plate containing 25 μl 8× inhibitors. Add 25,000 uninfected C8166-LTRluc cells/well in 200 μl complete RPMI to last row for background control. Incubate cells at 37° C. in 5% CO2 incubator for 3 days.
(§10) Add 50 μl Steady Glo (luciferase substrate T1/2=5 hours Promega catalogue # E2520) to each well of the 96 well plate. Determine the relative light units (RLU) of luciferase using the BMG LUMlstar Galaxy luminometer. Plates are read from the bottom for 2 seconds per well with a gain of 240.
(§11) The level of inhibition (% inhibition) of each well containing inhibitor was calculated with the following equation: […]
The calculated % inhibition values were then used to determine EC50, slope factor (n) and maximum inhibition (Imax) by the non-linear regression routine NLIN procedure of SAS using the following equation: […]
The results are listed in Table 9 as IC50(nM) and EC50 (nM).
as §1

[4] = tested on: HIV-1 resistant mutant K103N/Y181C in C8166 LTRluc cells; experiment: C8166 HIV-1 luciferase assay (EC50), resistant mutant; assay type: cell-based; settings: Human immunodeficiency virus 1, C8166, read-out: EC50 K103N/Y181C
Text: as §2, §3, §4, §5, §6, §7
as §8, with “Eleven” for “Serial dilutions of HIV-1 inhibitors compounds are prepared in complete media from 10 mM DMSO stock solutions. Eleven”
as §9, with “Infect cells with HIV-1 at a moi of 0.005.” left out
as §10, §11
The calculated % inhibition values were then used to determine EC50, slope factor (n) and maximum inhibition (Imax) by the non-linear regression routine NLIN procedure of SAS using the following equation:
as §1

SMILES	IC50 [1] [µM]	IC50 [2] [µM]	EC50 [3] [µM]	EC50 [4] [µM]
Cc1ccc(NC(=O)CSc2nnnn2-c2ccc(C(C)(C)C)cc2Cl)c(Cl)n1 [Entry 802]	< 0.05	> 0.1	< 0.05	0.05 to 0.1
Cc1ccc(-n2c(CCO)nnc2SCC(=O)Nc2ccc(-c3ccccc3)cc2Cl)c(Cl)c1 [Entry 429]	< 0.05	> 0.1	< 0.05	> 0.1
CC(C)(C)c1ccc(-n2nnnc2SCC(=O)Nc2ccc([N+](=O)[O-])cc2Cl)c(Cl)c1 [Entry 602]	< 0.05	> 0.1	0.05 to 0.1	> 0.1
CC(C)(C)c1ccc(-n2nnnc2SCC(=O)Nc2ccc(S(N)(=O)=O)cc2Cl)c(Cl)c1 [Entry 604]	< 0.05	< 0.05	< 0.05	< 0.05
Cc1ccc(-n2nnnc2SCC(=O)Nc2ccc(C(N)=O)cc2Cl)c(Cl)c1 [Entry 504]	< 0.05	> 0.1	< 0.05	< 0.05
Cc1nnc(SCC(=O)Nc2ccc(S(C)(=O)=O)cc2Cl)n1-c1ccc(C(C)(C)C)cc1Cl [Entry 431]	< 0.05	0.05 to 0.1	< 0.05	< 0.05
O=C(CSc1nnnn1-c1cccc2ccccc12)Nc1ccc(-c2ccccc2)cc1Cl [Entry 238]	< 0.05	> 0.1	0.05 to 0.1	> 0.1
CC(C)(C)c1ccc(-n2nnnc2SCC(=O)Nc2ccc(S(=O)(=O)c3ccc(Cl)cc3)cc2Cl)c(Cl)c1 [Entry 605]	< 0.05	> 0.1	0.05 to 0.1	> 0.1
CC(C)(C)c1ccc(-n2nnnc2SCC(=O)Nc2ccc(CCC(=O)O)cc2Cl)c(Cl)c1 [Entry 601]	< 0.05	> 0.1	< 0.05	> 0.1
CC(C)(C)c1ccc(-n2nnnc2SCC(=O)Nc2ccc(N3CCCC3)cc2Cl)c(Cl)c1 [Entry 612]	< 0.05	> 0.1	0.05 to 0.1	> 0.1
O=C(CSc1nnnn1-c1cccc2ccccc12)Nc1ccc(O)cc1Cl [Entry 246]	< 0.05	> 0.1	< 0.05	> 0.1
CC(C)CS(=O)(=O)c1ccc(NC(=O)CSc2nnnn2-c2ccc(C(C)(C)C)cc2Cl)c(Cl)c1 [Entry 608]	< 0.05	> 0.1	< 0.05	0.05 to 0.1
CC(C)S(=O)(=O)c1ccc(NC(=O)CSc2nnnn2-c2ccc(C(C)(C)C)cc2Cl)c(Cl)c1 [Entry 607]	< 0.05	> 0.1	< 0.05	0.05 to 0.1
CC(C)(C)c1ccc(-n2nnnc2SCC(=O)Nc2ccc(S(=O)(=O)c3ccccc3)cc2Cl)c(Cl)c1 [Entry 606]	< 0.05	0.05 to 0.1	< 0.05	0.05 to 0.1
Cc1ccc(-n2nnnc2SCC(=O)Nc2ccc(C(=O)O)cc2Cl)c(Cl)c1 [Entry 503]	< 0.05	> 0.1	< 0.05	> 0.1
Cc1ccc(-c2ccccc2SCC(=O)Nc2ccccc2Cl)c(Cl)c1 [Entry 416]	< 0.05	> 0.1	< 0.05	> 0.1
CC(C)(C)c1ccc(-n2nnnc2SCC(=O)Nc2ccc(N3CCCCC3)cc2Cl)c(Cl)c1 [Entry 613]	< 0.05	> 0.1	< 0.05	> 0.1
CC(C)(C)c1ccc(-n2nnnc2SCC(=O)Nc2ccc(N)cc2Cl)c(Cl)c1 [Entry 617]	< 0.05	> 0.1	< 0.05	0.05 to 0.1
Cc1ccc(-n2nnnc2SCC(=O)Nc2ccc(S(C)(=O)=O)cc2Cl)c(Cl)c1 [Entry 509]	< 0.05	> 0.1	< 0.05	> 0.1
CC(C)(C)c1ccc(-n2nnnc2SCC(=O)Nc2ccc(C(=O)O)cc2Cl)c(Cl)c1 [Entry 616]	< 0.05	0.05 to 0.1	< 0.05	< 0.05
